The target in assay [1] is T1, rNOSIP (Homo sapiens, UniProt Q9Y314).
T1 construct: made in house; host or cells: E. coli BL21 (DE3)
T1 sequence (Q9Y314 with tags, fused parts or gaps): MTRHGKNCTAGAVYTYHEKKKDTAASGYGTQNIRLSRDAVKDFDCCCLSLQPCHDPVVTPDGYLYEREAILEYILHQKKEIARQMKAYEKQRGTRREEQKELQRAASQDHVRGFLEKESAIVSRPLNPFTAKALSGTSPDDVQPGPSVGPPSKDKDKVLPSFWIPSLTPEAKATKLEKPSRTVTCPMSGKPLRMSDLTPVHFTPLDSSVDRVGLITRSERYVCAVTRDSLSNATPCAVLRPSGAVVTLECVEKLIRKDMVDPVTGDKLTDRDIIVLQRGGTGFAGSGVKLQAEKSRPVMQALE
The experiment in a line: Isothermal titration calorimetry (ITC) of rNOSIP with small molecules / 18 mer iNOS peptide (PP2). In kind it is binding. The settings on record: for ΔG / ΔH / −TΔS / Kd / N (Sites): ITC 25° C.; for Kd / N (Sites): small molecule/peptide in cell, NOSIP in syringe; for Fold Change (KD): ITC KD relative to iNOS-Peptide2 = 1; for SM binding affinity with NOSIP, hierarchy: ITC, rank order. How it is done:
The 18 mer iNOS peptide (PP2) and small molecules were used for physical association of molecules in calorimetric analysis. The molecular association leads to thermodynamics changes such as Gibb's free energy change (ΔG), entropy change (ΔS), enthalpy change (ΔH) and number of binding sites (N) in interacting solution were investigated by isothermal calorimetry MICROCAL PEQ (Malvern) at 25° C. […] The experiment consisted of multiple injections and each injection contained 1.5 μl of binding solution (recombinant NOSIP solution) with 120 second spacing time between subsequent injections. Sequential titrations were carried out and the sample solution was continuously stirred at 270 rpm by the rotating paddle attached to the syringe needle. Multiple injections of NOSIP made into the sample cell containing interacting solution of peptide and small molecules. The titration curves were analyzed using the analysis software provided with the calorimeter.
The 18 mer iNOS peptide (PP2) and five small molecules were used to analyze physical association in calorimetric analysis. The molecular association leads to thermodynamics changes such as Gibb's free energy change (ΔG), entropy change (ΔS), enthalpy change (ΔH) and number of binding sites (N) in interacting solution were investigated by isothermal calorimetry MICROCAL PEQ (Malvern) at 25° C. […] The experiment consisted of multiple injections and each injection contained 1.5 μl of binding solution with 120 second spacing time between subsequent injections. Sequential titrations were carried out and the sample solution was continuously stirred at 270 rpm by the rotating paddle attached to the syringe needle. Multiple injections of NOSIP made into the sample cell containing interacting solution of peptide and small molecules. The titration curves were analyzed using the analysis software provided with the calorimeter.

Assay [2] concerns the target T2, iNOS-NOSIP protein interaction (Homo sapiens, UniProt Q9Y314).
T2 construct: made in house; host or cells: E. coli BL21 (DE3)
T2 sequence (Q9Y314 with tags, fused parts or gaps): T1 sequence (Q9Y314 with tags, fused parts or gaps)
As to the kind of experiment: SPR: inhibition of rNOSIP association with immobilized recombinant iNOS by iNOS peptides / small molecules. In kind it is binding. The settings on record: for inhibition hierarchy of iNOS-NOSIP protein interaction: SPR, rank order; for Kd: Kd/Ka; for inhibition of binding of NOSIP with iNOS ligand by small molecules: rNOSIP 250 nM, small molecules 1 uM, SPR (FIG. 4). As for the experimental part:
Four different iNOS peptides were synthesized commercially by China peptides and iNOS peptides were used for molecular interaction studies with immobilized recombinant iNOS purified protein. The iNOS peptides mediated inhibition of rNOSIP and riNOS protein association in Bio-Rad XPR 36 surface plasmon resonance biosensor instrument. […] 250 nM of iNOS peptides was used for inhibition assay with immobilized ligand(recombinant iNOS) in SPR analysis. Similar condition and concentration of small molecules were used for inhibition of recombinant protein association with immobilized ligand. […] The rNOSIP protein was incubated with iNOS derived peptide/small molecules for 30 minutes in ice for inhibition assay before the SPR application in our study. The molecular interaction was carried out at 20° C. and kinetic parameters were determined, after fitting the association and dissociation curves to a 1:1 (Langmuir)-binding model. An activated channel without immobilized ligand was used to evaluate nonspecific binding. The response curves were also recorded on control surfaces. Results were calculated after subtraction of the control values using the ProteOn Manager software.
The collected sensorgram data were processed by reference subtraction using double-referencing with the in-line blank buffer. The integrated ProteOn Manager software was used to fit the data with the Langmuir model describing a 1:1 binding stoichiometry. Ka is the association rate constant, Kd is the dissociation rate constant, and KD is the equilibrium dissociation constant, defined by the Kd/Ka ratio for the analytes-ligand binding.
The five small molecules bind with NOSIP and inhibit the association of recombinant NOSIP and recombinant iNOS. The rNOSIP protein was incubated with iNOS derived peptide or small molecules for 30 minutes in ice prior to SPR application. The molecular interaction was carried out at 20° C. and kinetic parameters were determined, after fitting the association and dissociation curves to a 1:1 (Langmuir)-binding model. An activated channel without immobilized ligand (recombinant iNOS) was used to evaluate nonspecific binding. The response curves were also recorded on control surfaces. Results were calculated after subtraction of the control values using the ProteOn Manager software.
The collected sensorgram data were processed by reference subtraction using double-referencing with the in-line blank buffer. The integrated ProteOn
Manager software was used to fit the data with the Langmuir model describing a 1:1 binding stoichiometry. Ka is the association rate constant, Kd is the dissociation rate constant, and KD is the equilibrium dissociation constant, defined by the Kd/Ka ratio for the analytes—ligand binding.

In assay [3] the test system is human PBMCs. As to the kind of experiment: NO levels (Griess) in human PBMCs, small molecules alone or in combination. It counts as cell-based. Particulars: 0.1 and 0.01 μM, 24 h. As for the experimental part: PBMCs (1 million cells/ml) from healthy individuals' blood was isolated and were treated with or without NOSIP antagonists (either alone or mixture of equimolar concentration of all 5 small molecule antagonists at 0.1 and 0.01 μM) for 30 min in triplicate wells and incubated for 24 h at 37° C. The culture supernatants were analysed by […] for nitrite concentration using Griess reagent, and the NO levels are shown as mean percent increase over untreated control. The panel on the right top of FIG. 10 depict nitrite levels by individual small molecules in human PBMCs. […] Thus a combined mixture of 5 small molecules will be desirable for use in mouse as well as humans.

Assay [4] has as its system Mouse BMDMs. As to the kind of experiment: Nitric oxide production by individual small molecules in mouse BMDM. It counts as cell-based.
In assay [5] the target is T3, recombinant iNOS (Homo sapiens, UniProt P35228).
T3 construct: made in house; host or cells: E. coli BL21 (DE3)
T3 sequence (P35228 with tags, fused parts or gaps limits assumed): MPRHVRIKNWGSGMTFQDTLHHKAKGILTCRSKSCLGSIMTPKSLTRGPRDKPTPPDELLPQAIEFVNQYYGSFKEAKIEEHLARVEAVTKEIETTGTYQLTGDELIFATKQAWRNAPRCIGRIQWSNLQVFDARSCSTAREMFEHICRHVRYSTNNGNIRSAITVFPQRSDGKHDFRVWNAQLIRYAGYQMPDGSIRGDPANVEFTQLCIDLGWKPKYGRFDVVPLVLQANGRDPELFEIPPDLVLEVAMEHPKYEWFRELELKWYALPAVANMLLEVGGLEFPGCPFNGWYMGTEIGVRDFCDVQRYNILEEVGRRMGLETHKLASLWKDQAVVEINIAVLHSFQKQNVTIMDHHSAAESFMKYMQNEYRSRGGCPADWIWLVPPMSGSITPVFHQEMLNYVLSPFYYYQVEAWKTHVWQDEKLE
As to the kind of experiment: iNOS enzyme activity in presence of recombinant NOSIP, Griess reaction. It counts as biochemical. Particulars: iNOS 0.5 μM, NOSIP 0.5 to 5 μM, substrate L-Arginine. As for the experimental part: The human iNOS oxygenase domain (SEQ ID No.: 24) containing 424 nucleotide sequence and NOSIP gene (SEQ ID No.: 23) containing 301 nucleotide sequences were synthesized by GenScript and cloned in pET22b expression vector. The recombinant pET22b: iNOS and pET22b: NOSIP plasmid was used to transform competent E. coli BL21 (DE3) cells. The proteins were over expressed using 0.2 mM IPTG at 25° C. The harvested cells were resuspended and sonicated in 20 mM Tris-HCl, pH 7.5, 200 mM NaCl, 0.05% Triton X-100 and protease inhibitor (Sigma). The expressed proteins were purified by nickel nitrilotriacetic acid column using 250 mM imidazole and gel filtration chromatography. The protein was quantified by Bradford assay (Sigma) and integrity of purified protein was checked on 12% SDS-PAGE.
In a […] assay increasing concentrations of recombinant NOSIP were mixed with recombinant iNOS along with substrate L-Arginine and the resultant product, […] was quantified by using Griess reaction kit. […] Statistical significance was assessed by one way ANOVA, Tukey& #39;s Multiple Comparison Test.

[6] abbreviates: analyte rNOSIP alone or + peptide/small molecule, ligand r iNOS, 20° C.
Where [7] appears, read: analyte rNOSIP alone or + peptide/small molecule, ligand r iNOS, 20° C., 1:1 Langmuir.

`COc1cc(C)ccc1OCc1nc(C(=O)NCc2n[nH]c3c2CCC3)co1` [MCULE-4640800528, N-({1H,4H,5H,6H-cyclopenta[c]pyrazol-3-yl}methyl)-2[(2-methoxy-4-methylphenoxy)methyl]-1,3-oxazole-4-carboxamide]: in assay [1], the “ΔG” value was -8.70 kcal/mol, the “ΔH” value was -8.54 ± 0.255 kcal/mol, the “−TΔS” value was -0.159 kcal/mol and binding was put at a Kd of 420 ± 57.5 nM. In assay [1], the “N (Sites)” value amounted to 1.04; the “Fold Change (KD)” value is reported as 0.766; the “SM binding affinity with NOSIP, hierarchy” value is on record as “CC4>CC11>CC6>CC5>CC13>Peptide 2 (iNOS)”. In assay [2], the “inhibition hierarchy of iNOS-NOSIP protein interaction” value is given as “CC4>CC11>CC6>CC5>CC13>iNOS Peptide 2” and the “inhibition of binding of NOSIP with iNOS ligand by small molecules” value is “inhibit the binding of NOSIP with iNOS ligand”. In addition, the kon in assay [2] (analyte rNOSIP alone or + peptide/small molecule, ligand r iNOS, 20° C., 1:1 Langmuir, read-out: Ka) turned out to be 0.563 M⁻¹ s⁻¹. Moreover, the Kd in assay [2] (setting [6]) is 870000 nM. Besides, the “nitric oxide produced, individual small molecules compared” value in assay [3] is recorded as “more effective than molecules in human cells”.
As for `CCN(c1ccccc1)S(=O)(=O)c1ccc(Cl)c(NC(=O)COC(=O)c2ccccc2SCC(=O)Nc2ccc3c(c2)OCO3)c1` [MCULE-8094061955, ({2-chloro-5-[ethyl(phenyl)sulfamoyl]phenyl}carbamoyl)methyl 2-({[(2H-1,3-benzodioxol-5-yl)carbamoyl]methyl}sulfanyl) benzoate], in assay [1], the “ΔG” value was -8.61 kcal/mol, the “ΔH” value is -9.07 ± 0.251 kcal/mol, the “−TΔS” value is 0.459 kcal/mol and binding was characterised by a dissociation constant (Kd) of 493 ± 63.2 nM. Moreover, in assay [1], the “N (Sites)” value was 0.993; the “Fold Change (KD)” value is given as 0.899; the “SM binding affinity with NOSIP, hierarchy” value is reported as “CC4>CC11>CC6>CC5>CC13>Peptide 2 (iNOS)”. For the same molecule, in assay [2], the “inhibition hierarchy of iNOS-NOSIP protein interaction” value is given as “CC4>CC11>CC6>CC5>CC13>iNOS Peptide 2” and the “inhibition of binding of NOSIP with iNOS ligand by small molecules” value is “inhibit the binding of NOSIP with iNOS ligand”. The “Ka(1/Ms)” value in assay [2] (setting [7]) was determined as 6.7e^−01 1/Ms. Besides, in assay [2] (setting [6]), the Kd stood at 809000 nM. For the same molecule, the “nitric oxide produced, individual small molecules compared” value in assay [4] was “more effective with mouse cells”.

B1: NOSIP: recombinant Nitric oxide synthase interacting protein expressed in E. coli BL21 (DE3) (protein, UniProt Q9Y314 1-301, looked up)
Nitric oxide …: MTRHGKNCTAGAVYTYHEKKKDTAASGYGTQNIRLSRDAVKDFDCCCLSLQPCHDPVVTPDGYLYEREAILEYILHQKKEIARQMKAYEKQRGTRREEQKELQRAASQDHVRGFLEKESAIVSRPLNPFTAKALSGTSPDDVQPGPSVGPPSKDKDKVLPSFWIPSLTPEAKATKLEKPSRTVTCPMSGKPLRMSDLTPVHFTPLDSSVDRVGLITRSERYVCAVTRDSLSNATPCAVLRPSGAVVTLECVEKLIRKDMVDPVTGDKLTDRDIIVLQRGGTGFAGSGVKLQAEKSRPVMQA
In the case of B1, the “Ka(1/Ms)” value in assay [2] (setting [7]) is listed as 9.57e^+04 1/Ms. The Kd in assay [2] (setting [6]) was found to be 7.11 nM. In assay [5], the “inhibition of iNOS enzyme activity (Griess)” value is “inhibits enzyme activity of iNOS”.

The values above are taken from patent publication US20240000786A1, “COMPOSITION FOR ENHANCING INTRA-CELLULAR NITRIC OXIDE GENERATION” (INSTITUTE OF LIFE SCIENCES, priority 2020, published 2024).
